This is an account of results in ChEMBL document CHEMBL1127259, “Synthesis of RPR 100893, prototype of a new series of potent and selective non peptide NK1 antagonists : the triarylperhydroisoindolols” (Bioorg Med Chem Lett, 1994).

The species named for the assay is Cavia porcellus. Put plainly: Tested for antagonism of the contractile effect on guinea pig ileum preparations. It counts as functional. The following applies: read-out: pA2 (converted).

In the case of `COc1ccccc1[C@H](C)C(=O)N1C[C@@H]2[C@H](C1)C(c1ccccc1)(c1ccccc1)CC[C@@]2(O)c1ccccc1OC` [DAPITANT], the Kb was 8.91 nM.
